Measured values taken from patent publication US6514981B1, “Methods of modulating tyrosine protein kinase function with indolinone compounds” (Sugen, Inc., priority 1998, dated 2003).

Biological target: EGFR (Homo sapiens, UniProt P00533)
Experiment: Biochemical EGFR assay (ELISA, A431 cell lysate)
Parameters: Add 7 μg A431 cell lysate per well (EGFR source); endogenous in cells; host or cells: A431 cell lysate, captured on 05-101 anti-EGFR antibody
Conditions: A431 cell lysate as EGFR source
Excerpt: The following protocol describes the procedures used to analyze protein tyrosine kinase activity on the EGFR in an Elisa. The procedure also describes the protocol for the initial screening of drugs for inhibition or activation of protein tyrosine kinase activity.
A431 cells are available from a variety of commercial sources and may be used lysed using conventional methods known to those skilled in the art or as described for lysis of the 3T3 cells in the EGF cellular assay described herein. −80° C., 1 mL aliquots
1. Coat Corning 96-well elisa plates with 0.5 μg per well 05-101 antibody. Bring final volume to 100 μL per well with PBS. Coat plates overnight at 4° C.
5. Add 7 μg A431 cell lysate per well (EGFR source). Add PBS to final volume of 100 μL per well. Incubate 30 minutes while shaking.
7. At this point, drugs or extracts are added to the wells. Dilute drugs/extracts 1:100 (unless specified otherwise) in TBS+10% DMSO in 96-well polypropylene plates. Add 120 μL TBS to ELISA plate containing captured EGFR. […] Incubate plate 30 minutes while shaking.
8. […] (150 μL final volume in well with 3 μM ATP/5 mM MnCl2 final concentration in well.) Incubate 5 minutes while shaking vigorously.
9. […]
17. Read assay on Dynatech MR7000 elisa reader.
The IC50 values measured in the above assay for the compound of formula VI are depicted in Table 2: […]

EGFR, sequence (P00533 25-1210): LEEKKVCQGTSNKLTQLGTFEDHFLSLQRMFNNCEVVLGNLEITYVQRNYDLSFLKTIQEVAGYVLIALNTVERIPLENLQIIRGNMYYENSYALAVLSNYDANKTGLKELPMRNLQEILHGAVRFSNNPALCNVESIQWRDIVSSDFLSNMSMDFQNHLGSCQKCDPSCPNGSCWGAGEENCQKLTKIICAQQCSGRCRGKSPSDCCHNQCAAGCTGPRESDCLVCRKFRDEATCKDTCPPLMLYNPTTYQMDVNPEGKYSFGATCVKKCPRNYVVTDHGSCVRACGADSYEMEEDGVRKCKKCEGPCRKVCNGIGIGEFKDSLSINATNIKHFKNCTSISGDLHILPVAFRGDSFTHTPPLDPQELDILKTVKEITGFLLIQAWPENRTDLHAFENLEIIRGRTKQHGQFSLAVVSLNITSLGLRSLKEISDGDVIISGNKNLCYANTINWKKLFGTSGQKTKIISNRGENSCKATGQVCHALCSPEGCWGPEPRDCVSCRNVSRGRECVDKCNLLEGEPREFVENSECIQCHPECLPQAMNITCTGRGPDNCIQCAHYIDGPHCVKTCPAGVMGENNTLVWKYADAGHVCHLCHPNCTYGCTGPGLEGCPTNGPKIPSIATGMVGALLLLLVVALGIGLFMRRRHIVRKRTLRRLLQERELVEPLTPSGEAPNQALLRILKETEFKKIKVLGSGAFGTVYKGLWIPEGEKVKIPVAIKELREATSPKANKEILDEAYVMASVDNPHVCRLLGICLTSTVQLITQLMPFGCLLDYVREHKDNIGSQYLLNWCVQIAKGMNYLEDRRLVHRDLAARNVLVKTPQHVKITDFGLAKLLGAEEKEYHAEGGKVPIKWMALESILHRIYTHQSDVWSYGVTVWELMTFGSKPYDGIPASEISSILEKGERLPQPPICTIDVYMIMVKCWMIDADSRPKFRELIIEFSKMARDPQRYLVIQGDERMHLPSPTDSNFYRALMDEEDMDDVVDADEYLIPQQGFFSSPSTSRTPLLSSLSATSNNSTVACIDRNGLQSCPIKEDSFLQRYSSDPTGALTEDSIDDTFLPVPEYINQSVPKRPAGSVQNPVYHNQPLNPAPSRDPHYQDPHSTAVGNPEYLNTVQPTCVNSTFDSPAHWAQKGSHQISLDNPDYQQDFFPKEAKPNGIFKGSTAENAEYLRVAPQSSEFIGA

IC50: > 50 µM
Compound: Cc1cc(/C=C2/C(=O)Nc3ccccc32)c(C)c2c1[nH]c1ccccc12 [VI]
